According to patent publication US12084416B2, “Substituted sulfonylurea derivatives” (Zydus Lifesciences Limited, priority 2019, dated 2024):

These molecules were tested on IL-1β (assay: In-vitro IL-1β inhibition assay in PMA-differentiated, LPS-primed, ATP-stimulated THP1 cells). Settings: Homo sapiens, THP-1; THP1 monocytes differentiated with PMA, primed with 500 ng/mL LPS, compound 30 min, 5 mM ATP 1 hr; IL-1β in supernatant; read-out: IC50 (nM), invitro IL-1β inhibitory activity.
Format: cell-based
Description: THP1 monocytes were differentiated with PMA (100 ng/mL) and incubated at 37 deg C. for 20 hrs in presence of 5% CO2. 2×10^5 differentiated cells were plated per well of 96 well tissue culture plates. The cells were primed using 500 ng/mL Lipopolysaccharide and incubating for 4 h under the same condition. The cells were then treated with various concentrations of the compounds for 30 min followed by treatment with 5 mM ATP for 1 hr. The supernatants were collected and analyzed by IL-1b (Mabtech Cat #3415-1H-20) or TNF-α (Mabtech; Cat #3510-1H-20) detection kit. The data were analyzed using GraphPad Prism V7.0. Dose Response Curve (DRC) was constructed to determine the IC50 value by fitting percentage […] data to the GraphPad Prism using nonlinear regression analysis.
`CCCN1CCC[C@@H]1/C=C/S(=O)(=O)NC(=O)Nc1c2c(cc3c1CCC3)CCC2` [Example 4, (R,E)-N-((1,2,3,5,6,7-hexahydro-s-indacen-4-yl)carbamoyl)-2-(1-propylpyrrolidin-2-yl)ethene-1-sulfonamide] gave an IC50 of 7.4 nM.

Each molecule was assayed on IL-1β (assay: In-vivo LPS and ATP induced IL-1β assay). Settings: Mus musculus, 2.5 h; Dose 10 mpk, po; female C57 mice; serum IL-1β by ELISA; read-out: % IL-1β inhibition in LPS + ATP challenged C57 mice.
Description: All the animal experiments were carried out in female rats and mice, bred in-house. Animals were housed in groups of 6 animals per cage, for a week, in order to habituate them to vivarium conditions (25 f 4° C., 60-65% relative humidity, 12:12 h light:dark cycle, with lights on at 7.30 am). All the animal experiments were carried out according to the internationally valid guidelines following approval by the ‘Zydus Research Center animal ethical committee’.
Female C57 mice (6-8 weeks) received intraperitoneal injection of 50 μg/mouse of lipopolysaccharide (LPS) in PBS. Animals were treated immediately with the test compounds or the vehicle. After 2 h of LPS injection, animals were administered with ATP at 12.5 mg/mouse dissolved in PBS via intraperitoneal route. After 30 minutes of ATP injection, serum was collected for IL-1β estimation by ELISA.
With `CC(C)c1cc(F)cc(C(C)C)c1NC(=O)NS(=O)(=O)/C=C/[C@@H]1CCCN1C` [Example 77, (S,E)-N-((4-fluoro-2,6-diisopropylphenyl)carbamoyl)-2-(1-methylpyrrolidin-2-yl)ethene-1-sulfonamide] the inhibition in vivo at 10 mg/kg was 47%. Molecule `O=C(Nc1c2c(cc3c1CCC3)CCC2)NS(=O)(=O)/C=C/[C@H]1CCCN1CC1CC1` [Example 5, (R,E)-2-(1-(cyclopropylmethyl)pyrrolidin-2-yl)-N-((1,2,3,5,6,7-hexahydro-s-indacen-4-yl)carbamoyl)ethene-1-sulfonamide] has an inhibition in vivo at 10 mg/kg of 70%. For `CCCN1CCC[C@@H]1/C=C/S(=O)(=O)NC(=O)Nc1c2c(cc3c1CCC3)CCC2` [Example 4, (R,E)-N-((1,2,3,5,6,7-hexahydro-s-indacen-4-yl)carbamoyl)-2-(1-propylpyrrolidin-2-yl)ethene-1-sulfonamide], the inhibition in vivo at 10 mg/kg was 90%. In the case of `C[C@]1(/C=C/S(=O)(=O)NC(=O)Nc2c3c(cc4c2CCC4)CCC3)CCCN1S(C)(=O)=O` [Example 55, (R,E)-N-((1,2,3,5,6,7-hexahydro-s-indacen-4-yl)carbamoyl)-2-(2-methyl-1-(methylsulfonyl)-pyrrolidin-2-yl)ethene-1-sulfonamide], the inhibition in vivo at 10 mg/kg is reported as 82.5%. Molecule `CC(C)N1CCC[C@@H]1/C=C/S(=O)(=O)NC(=O)Nc1c2c(cc3c1CCC3)CCC2` [Example 22, (R,E)-N-((1,2,3,5,6,7-hexahydro-s-indacen-4-yl)carbamoyl)-2-(1-isopropylpyrrolidin-2-yl)ethene-1-sulfonamide] has an inhibition in vivo at 10 mg/kg of 83%.
